# Laboratory results reported in patent publication US7196074B2, “Methods of making, using and pharmaceutical formulations comprising 7α, 11β-dimethyl-17β-hydroxyestra-4, 14-dien-3-one and 17 esters thereof” (The United States of America as represented by the …, priority 2000, dated 2007).
# Key:
# androgen receptor = biological target: T1, androgen receptor (Rattus norvegicus, UniProt P15207); experiment: Relative binding affinity to the androgen receptor; settings: from rat prostate; relative to methyltrienolone = 100%; value is for the free alcohol of the listed ester
# T1 sequence (P15207 1-902): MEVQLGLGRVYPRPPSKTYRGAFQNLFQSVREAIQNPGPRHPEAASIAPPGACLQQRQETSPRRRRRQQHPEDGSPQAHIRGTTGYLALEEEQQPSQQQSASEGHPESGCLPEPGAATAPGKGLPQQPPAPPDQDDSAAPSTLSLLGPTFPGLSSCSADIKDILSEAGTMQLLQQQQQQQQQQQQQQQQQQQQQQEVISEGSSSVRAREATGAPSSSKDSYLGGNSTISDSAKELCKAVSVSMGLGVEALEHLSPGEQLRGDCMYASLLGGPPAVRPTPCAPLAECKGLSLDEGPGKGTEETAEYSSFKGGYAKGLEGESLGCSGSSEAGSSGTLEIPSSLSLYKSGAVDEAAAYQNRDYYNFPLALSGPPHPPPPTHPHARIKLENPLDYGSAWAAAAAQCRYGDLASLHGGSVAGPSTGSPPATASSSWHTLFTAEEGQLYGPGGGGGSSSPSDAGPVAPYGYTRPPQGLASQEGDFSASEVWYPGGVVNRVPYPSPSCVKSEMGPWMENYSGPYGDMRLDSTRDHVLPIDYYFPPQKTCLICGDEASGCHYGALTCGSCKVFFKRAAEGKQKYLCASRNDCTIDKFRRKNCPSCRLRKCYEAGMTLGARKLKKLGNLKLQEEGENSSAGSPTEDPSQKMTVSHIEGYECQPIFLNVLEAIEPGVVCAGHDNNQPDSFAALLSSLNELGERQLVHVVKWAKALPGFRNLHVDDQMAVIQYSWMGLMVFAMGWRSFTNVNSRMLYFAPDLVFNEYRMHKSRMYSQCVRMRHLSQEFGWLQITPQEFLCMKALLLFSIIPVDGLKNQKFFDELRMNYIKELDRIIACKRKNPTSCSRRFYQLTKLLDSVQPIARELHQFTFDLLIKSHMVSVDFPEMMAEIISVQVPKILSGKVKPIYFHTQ
# Description: In addition to the foregoing, the androgenic potency and relative binding affinity to the androgen receptor of several free alcohols after subcutaneous administration of their corresponding esters was also determined.
# ventral prostate weight [1] = experiment: Subcutaneous androgenic potency, ventral prostate weight assay in orchidectomized immature rats (injection daily for seven days); type: in vivo, Sprague-Dawley rats
# Description: (§1) Immature (about 21-day-old) Sprague-Dawley rats were orchidectomized under anesthesia, and randomly assignee to groups of ten animals for each dose level of the active undergoing testing. Each active was dissolved in 10% ethanol/sesame oil and administered by gavage (oral) or subcutaneous injection each day for seven days beginning on the date of the orchidectomy. The animals were sacrificed 24 hours after the last dose, and the ventral prostate and seminal vesicles were excised, cleaned of fat and connective tissue, blotted on moist filter paper and weighed to the nearest 0.1 mg. Regression analysis was performed by conventional methods using a PROPHET data management system. Ventral prostate weight was used as the endpoint because it is the sensitive organ to androgenic stimulation.
# as §1, with “by” for “by gavage (oral) or”, “mg. See, e.g., Hershberger, L. et al, Myotrophic Activity of 19-nortestosterone And Other Steroids Determined By Modified Levator And Muscle Method, Proc. Soc. Exptl. Bid. Med. 83 175–180 (1953).” for “mg.”, “system. See, e.g., Bliss, C., The Statistics of Bioassay (Academic Press, New York, 1952); Hollister, C., Nucleic Acids Res. 16 1873–75 (1988).” for “system.”
# Immature (about 22-day-old) Sprague-Dawley male rats were orchidectomized under anesthesia, and randomly assignee to groups of ten animals for each dose level of the active undergoing testing. […] Illumination was controlled for 14 hour periods of light and 10 hours of darkness.
# Each active was administered by subcutaneous injection of 0.6 mg of test material in aqueous suspending vehicle (ASV) and/or an oily vehicle (10% ethanol/sesame oil) on the day of surgery. Testosterone enanthate in sesame oil was used as a standard. The ventral prostate and seminal vesicles were excised, cleaned of fat and connective tissue, blotted on moist filter paper and weighed to the nearest 0.1 mg. Regression analysis was performed by conventional methods using a PROPHET data management system. Ventral prostate weight was used as the endpoint because it is the sensitive organ to androgenic stimulation.
# ventral prostate weight [2] = experiment: Duration of androgenic activity after subcutaneous injection, ventral prostate weight over weeks in orchidectomized immature rats; type: in vivo, Sprague-Dawley rats
# Description: as §1, with “was” for “was dissolved in 10% ethanol/sesame oil and”, “by” for “by gavage (oral) or”
# Except for testosterone enanthate, each active was formulated in two different carriers: (1) an aqueous suspension and (2) in sesame oil. Testosterone enanthate was formulated using the sesame oil carrier only, because it exists as a liquid at room temperature and could not therefore be formulated as an aqueous suspension.
# (§2) The carrier used to provide the aqueous suspension was formulated as follows: 1 g benzyl alcohol, 0.5 g sodium carboxylethyl cellulose 50, 0.376 g disodium hydrogen phosphate dihydrate, 1.495 g sodium dihydrogen phosphate dihydrate, with water for injection (WFI) being added to bring volume of the carrier up to 100 ml.
# Each formulation was prepared at a concentration of 0.6 mg/0.2 ml.
# Immature (about 21-day-old) Sprague-Dawley rats were orchidectomized under anesthesia, and randomly assignee to groups of 40 or more. Animals received a single subcutaneous injection of 0.6 mg of each ester in 0.2 ml of an aqueous suspending carrier and/or oily carrier (10% ethanol/90% sesame oil or ethyl oleate) on the date of the orchidectomy. In cases where the ester was not solid at room temperature, 10% ethanol/sesame oil or ethyl oleate was used as the carrier. In this example, the carrier used to provide the aqueous suspension was formulated as follows: 1 g benzyl alcohol, 0.5 g sodium carboxylethyl cellulose 50, 0.376 g disodium hydrogen phosphate dihydrate, 1.495 g sodium dihydrogen phosphate dihydrate, with water for injection (WFI) being added to bring volume of the carrier up to 100 ml.
# Five animals from each group were sacrificed at weekly or biweekly intervals, and the ventral prostate and seminal vesicles were excised, cleaned of fat and connective tissue, blotted on moist filter paper and weighed to the nearest 0.1 mg.
# Ventral prostate weight was used as the endpoint because it is the sensitive organ to androgenic stimulation. Regression analysis was performed by conventional methods using the PROPHET data management system previously identified.
# Immature (about 21-day-old) Sprague-Dawley rats were orchidectomized under anesthesia, and randomly assignee to groups of 40 or more. Animals received a single subcutaneous injection of 0.6 mg of the undecanoate in 0.2 ml of an aqueous suspending carrier and/or oily carrier (10% ethanol/90% sesame oil containing 5 mg/ml chlorobutanol as a preservative, or ethyloleate) on the date of the orchidectomy. The enanthate ester was formulated using the 10% ethanol/sesame oil or ethyloleate carrier as a first standard, with the 10% ethanol/sesame oil carrier used as a second standard.
# as §2, with “In this example, the” for “The”
# Immature (about 21-day-old) Sprague-Dawley rats were orchidectomized under anesthesia, and randomly assignee to groups of 40 or more. […] The enanthate ester was formulated using the 10% ethanol/sesame oil or ethyloleate carrier as a first standard, with the 10% ethanol/sesame oil carrier used as a second standard.
structure (smiles),measurement,setting,value
C[C@]1(O)CC[C@H]2[C@@H]3CCC4=CC(=O)CCC4=C3C=C[C@@]21C [methyltrienolone],Relative Binding Affinity (activity of corresponding alcohol),androgen receptor,100%
same,Androgenic Potency (activity of corresponding alcohol),"ventral prostate weight [1]; ventral prostate weight assay following subcutaneous administration, alcohol of G = 1.0 (assigned), value is for the free alcohol of the listed ester",5.0
"CCCCC1CCC(C(=O)O[C@H]2CC[C@H]3[C@H]4[C@H]([C@H](C)C[C@]23C)[C@H]2CCC(=O)C=C2C[C@H]4C)CC1 (stereo partly drawn) [CDB-4386, 7α, 11α-Dimethyl-19-nortestosterone-17β-bucyclate, reference compound]",activity after subcutaneous administration (in words),"ventral prostate weight [1]; subcutaneous injection daily for 7 days in 10% ethanol/sesame oil, ventral prostate weight",weak activity
same,ventral prostate weight over time after single subcutaneous injection (in words),"ventral prostate weight [2]; 0.6 mg in 0.2 ml, both oily and aqueous carriers, evaluation discontinued at 8 weeks, FIG. 8",inactive
same,"activity in potency and duration after subcutaneous injection (in words), FIG. 5","ventral prostate weight [2]; 0.6 mg/0.2 ml, aqueous suspension or sesame oil, ventral prostate weight",relatively low activity
C[C@@H]1CC2=CC(=O)CC[C@@H]2[C@@H]2[C@@H]1[C@@H]1CC[C@H](O)[C@@]1(C)C[C@@H]2C,melting point,,155 to 157 °C
